# Results taken from patent US6720142B1, “Method of determining evolutionary potential of mutant resistance genes and use thereof to screen for drug efficacy” (priority 1999, dated 2004).
# How the values were obtained:
# [1] = system: E. coli DH5α-E containing multiply mutated ampC; test: MIC of population of E. coli host cells containing multiply mutated (DNA-shuffled) ampC; assay type: cell-based; details: Escherichia coli; lowest drug concentration that completely inhibited growth; overnight at 37° C., MH-I broth, 48-well plates, shuffled ampC library in DH5α-E
# Method: E. coli host cells prepared according to Example 4 were diluted into 100 ml MuellerHinton-IPTG (MH-T) broth. Duplicate samples of 10^0, 10^1, and 10^2 dilutions were spread onto L(tet) plates to estimate total transformants, and duplicate 10^0 and 10^1 samples were spread onto MH-I(ampicillin) plates to estimate the number of Amp^R transformants. 10 mg ampicillin was added to each culture using 1 ml of a 10 mg/ml ampicillin solution. The culture was allowed to stand overnight at 37° C. without shaking.
# Next, the minimum inhibitory concentration of a number of drug was determined. An estimate of viable cells was calculated by assuming that an A600 of 1.0 is equivalent to 1.9×10^8 per ml for DH5α-E cells. A sample of the overnight culture was diluted into 70 ml of MH-I so that the number of cells per ml 10^5 per ml. The resulting suspension was used to determine MIC in 48-well microtiter plates.
# (§1) Serial dilutions were prepared by first determining the volume of drug solution to be added to the first well in each row to achieve the desired concentration of drug in a total volume of 1 ml. The MIC was determined for the following drugs: ampicillin, pipericillin, temocillin, cephalothin, cefuroxime, cefotaxime, ceftazidime, cefepime, imipenem, meropenem, and aztreonam. To the first well in each row 1 ml of the diluted cell suspension was added, and to all remaining wells per row 0.5 ml of the diluted cell suspension was added. For each row, the predetermined volume of a drug solution was added to the first well per row, mixed well, and then 0.5 ml of the mixed solution was transferred to the next well, and so on until the serial dilutions were completed. From the last well in each row, 0.5 ml was removed so that all well contained 0.5 ml of the drug-containing culture. Plates were sealed with BreatheEasy film (Diversified Biotech, Boston, Mass.) and maintained overnight at 37° C. with shaking. […] The MICs, in μg/ml, for each of the above-identified drugs was as follows: ampicillin, >1024; pipericillin, >1024; temocillin, 32: cephalothin, 1024; cefuroxime, 512; cefotaxime, 8; ceftazidime, 64; cefepime, 1; imipenem, 0.25; meropenem, 0.03125; and aztreonam, 16.
# [2] = system: host cells carrying PAmpC0-307 (AmpC L290 to R); test: MIC test, single-mutation plasmid PAmpC0-307; assay type: cell-based, E. coli; details: for MIC: PAmpC0-307, T869 to G, L290 to R
# Method: (§2) Basically, a MIC determination is carried out by preparing serial dilutions of drugs in a micro-well plate and measuring host cell growth within those wells. The MIC for a particular set of host cells containing a mutant resistance gene is determined by examining the wells to locate the lowest concentration of drug which inhibited cell growth. This is capable of discriminating generally between those host cells containing mutant resistance genes conferring different degrees of resistance against the particular drug.
# as §1
# (§3) To determine the phenotypic effects of each of the amino acid substitutions, the A907C, A587G, A663G, T869G, and A884G mutations are being individually introduced into pAmpC0 by site-directed mutagenesis. It is expected that the A907C mutation will result in MICs that are identical to pAmpC13A. The A587G, A663G, and As84G mutations will also be introduced individually into AmpC13 to determine whether the combination of any of those mutations with A907C will result in increased resistance levels.
# (§4) MICs of three of the plasmids containing the wildtype AmpC gene into which the above mutations have been introduced have been determined, as shown in Table 2 below.
# [3] = system: host cells carrying pAmpC0-305 (AmpC T121 to S); test: MIC test, single-mutation plasmid pAmpC0-305; assay type: cell-based, E. coli; details: for MIC: pAmpC0-305, A663 to G, T121 to S
# Method: as §2, §1, §3, §4
# [4] = system: E. coli JM109 carrying pAmpC0 (wildtype E. coli K12 ampC gene); test: MIC test, plasmid pAmpC0 (wildtype ampC gene); assay type: cell-based; details: for MIC: pAmpC0 (wildtype ampC); for resistance conferred by plasmid pAmpC0: wildtype ampC gene, Table 1 boxed cells
# Method: as §2
# All experiments utilizing ampicillin resistance will be directed toward the cloned and regulated ampC gene (or mutant ampC gene) in such a way that the regulation, i.e., the amount of enzyme produced per cell, will be held constant throughout the experiments and all of the “improvement” in resistance will come from improvement in β-lactamase activity.
# as §1, with “16. […]” for “16.”
# [5] = system: E. coli JM109 carrying the plasmid vector pACSE without an ampC gene; test: MIC test, plasmid vector pACSE without an ampC gene; assay type: cell-based; details: pACSE (vector, no ampC)
# Method: as §2, §1
# Plasmids were prepared from those isolates and were transformed into E. coli strain JM109. MICs conferred by each of those plasmids was determined as in Example 5.
# as §4
# [6] = system: host cells carrying PAmpC0-308 (AmpC N295 to S); test: MIC test, single-mutation plasmid PAmpC0-308; assay type: cell-based, E. coli; details: A644 to G
# [7] = system: E. coli carrying pAmpC13A (mutant ampC, S303R); test: MIC test, mutant plasmid pAmpC13A; assay type: cell-based
# Method: (§5) Serial dilutions were prepared by first determining the volume of drug solution to be added to the first well in each row to achieve the desired concentration of drug in a total volume of 1 ml. The MIC was determined for the following drugs: ampicillin, pipericillin, temocillin, cephalothin, cefuroxime, cefotaxime, ceftazidime, cefepime, imipenem, meropenem, and aztreonam. To the first well in each row 1 ml of the diluted cell suspension was added, and to all remaining wells per row 0.5 ml of the diluted cell suspension was added. For each row, the predetermined volume of a drug solution was added to the first well per row, mixed well, and then 0.5 ml of the mixed solution was transferred to the next well, and so on until the serial dilutions were completed. From the last well in each row, 0.5 ml was removed so that all well contained 0.5 ml of the drug-containing culture. Plates were sealed with BreatheEasy film (Diversified Biotech, Boston, Mass.) and maintained overnight at 37° C. with shaking.
# (§6) Plasmids were prepared from those isolates and were transformed into E. coli strain JM109.
# [8] = system: E. coli carrying pAmpC21B (mutant ampC); test: MIC test, mutant plasmid pAmpC21B; assay type: cell-based; details: for clinical resistance conferred by pAmpC21B: after two cycles of mutagenesis and selection
# Method: as §5, §6
# [9] = system: E. coli carrying pAmpC41A (mutant ampC); test: MIC test, mutant plasmid pAmpC41A; assay type: cell-based
# Method: as §5, with “shaking. […]” for “shaking.”
# Plasmids were prepared from those isolates and were transformed into E. coli strain JM109. MICs conferred by each of those plasmids was determined as in Example 5. […]
SMILES,MIC [1] [mg/L],MIC [2] [mg/L],MIC [3] [mg/L],MIC [4] [mg/L],MIC [5] [mg/L],MIC [6] [mg/L],resistance conferred by plasmid pAmpC0 [4],clinical resistance conferred by pAmpC13A [7],improved resistance conferred by pAmpC13A [7],clinical resistance conferred by pAmpC21B [8],change in resistance by T869G (L290R) mutation vs wildtype pAmpC0 [2],change in resistance by A663G (T121S) mutation vs wildtype pAmpC0 [3],"increase in resistance ([8]; pAmpC21B, second line) [fold]","improvement in resistance ([9]; pAmpC41A, first line) [fold]","improvement in resistance conferred by pAmpC41A ([9]; after subsequent rounds of mutagenesis and selection, relative to pAmpC13A)"
"C[C@@H](O)[C@H]1C(=O)N2C(C(=O)O)=C(SCCN=CN)C[C@H]12 [Imipenem, imipenem]",0.25,0.125,0.125,0.25,0.25,0.125,–,–,–,–,–,–,–,–,–
"CO[C@@]1(NC(=O)C(C(=O)O)c2ccsc2)C(=O)N2[C@@H](C(=O)O)C(C)(C)S[C@@H]21 (some centres unmarked) [Temocillin, temocillin]",32,8,16,16,16,8,not,clinical resistance,improved resistance,–,–,–,–,–,–
"C[C@H]1[C@H](NC(=O)/C(=N\OC(C)(C)C(=O)O)c2csc(N)n2)C(=O)N1S(=O)(=O)O [Aztreonam, aztreonam]",16,4,4,4,0.5,4,not,–,improved resistance,–,–,–,–,–,–
"CC(C)(O/N=C(\C(=O)N[C@@H]1C(=O)N2C(C(=O)[O-])=C(C[n+]3ccccc3)CS[C@H]12)c1csc(N)n1)C(=O)O [Ceftazidime, ceftazidime]",64,1,2,2,0.5,2,not,clinical resistance,improved resistance,clinical resistance,–,–,–,–,–
"C[C@@H](O)[C@H]1C(=O)N2C(C(=O)O)=C(S[C@@H]3CN[C@H](C(=O)N(C)C)C3)[C@H](C)[C@H]12 [Meropenem, meropenem]",0.0312,0.0312,0.0156,–,0.00195,0.0156,not,–,improved resistance,–,significantly increase resistance,significantly increase resistance,–,–,–
"CO/N=C(\C(=O)N[C@@H]1C(=O)N2C(C(=O)[O-])=C(C[N+]3(C)CCCC3)CS[C@H]12)c1csc(N)n1 [Cefepime, cefepime]",1,0.0625,0.0625,0.0625,0.0312,0.0625,not,–,improved resistance,–,–,–,2,128,–
"CC1(C)S[C@@H]2[C@H](NC(=O)[C@H](N)c3ccccc3)C(=O)N2[C@H]1C(=O)O [Ampicillin, ampicillin]",> 1020,128,128,128,2,64,confers resistance,clinical resistance,improved resistance,clinical resistance,–,–,–,–,–
"CCN1CCN(C(=O)N[C@@H](C(=O)N[C@@H]2C(=O)N3[C@@H]2SC(C)(C)[C@@H]3C(=O)O)c2ccccc2)C(=O)C1=O [Pipericillin, pipericillin]",–,16,16,16,4,4,not,clinical resistance,improved resistance,clinical resistance,–,–,–,–,slight improvement in resistance
"CO/N=C(\C(=O)N[C@@H]1C(=O)N2C(C(=O)O)=C(COC(C)=O)CS[C@H]12)c1csc(N)n1 [Cefotaxime, cefotaxime]",8,0.5,1,1,0.0625,0.5,not,–,improved resistance,–,–,–,–,–,–
"CC(=O)OCC1=C(C(=O)O)N2C(=O)[C@@H](NC(=O)Cc3cccs3)[C@H]2SC1 [Cephalothin, cephalothin]",1020,512,512,1020,16,512,confers resistance,clinical resistance,–,clinical resistance,–,–,–,–,–
"CO/N=C(\C(=O)N[C@@H]1C(=O)N2C(C(=O)O)=C(COC(N)=O)CS[C@H]12)c1ccco1 [Cefuroxime, cefuroxime]",512,32,32,64,16,32,confers resistance,clinical resistance,–,clinical resistance,–,–,–,–,–
